Data: paper PMC11226702, “Time-resolved crystallography of boric acid binding to the active site serine of the β-lactamase CTX-M-14 and subsequent 1,2-diol esterification” (Communications Chemistry, 2024)

Tests used:
β-lactamase CTX-M-14 [1] = target: T1, β-lactamase CTX-M-14 (Klebsiella pneumoniae, UniProt A0A0H3H219); assay: time-resolved serial crystallography, formed in situ from Ser70-bound boric acid and glycerol (occupancy […]); IC50 is for boric acid combined with glycerol; assay type: biochemical
T1 construct: gene KPHS_p301310
T1 sequence (A0A0H3H219 entry or part of it): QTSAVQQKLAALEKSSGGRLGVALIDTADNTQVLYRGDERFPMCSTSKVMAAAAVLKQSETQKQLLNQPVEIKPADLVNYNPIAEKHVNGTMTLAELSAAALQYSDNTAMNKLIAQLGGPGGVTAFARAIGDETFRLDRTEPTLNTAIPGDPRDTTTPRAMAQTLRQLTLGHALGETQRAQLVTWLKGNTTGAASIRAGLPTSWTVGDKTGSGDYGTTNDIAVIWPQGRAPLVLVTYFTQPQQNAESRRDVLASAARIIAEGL

β-lactamase CTX-M-14 [2] = target: T1, β-lactamase CTX-M-14; assay: time-resolved serial crystallography (bound to Ser70, occupancy up to […]); IC50 by photometric cefotaxime hydrolysis assay; assay type: biochemical

IC50 (β-lactamase CTX-M-14 [1]) [mM]	SMILES	IC50 (β-lactamase CTX-M-14 [2]) [mM]
3.1 ± 0.4	OCC1COB(O)O1 (racemic) [GBE, glycerol boric acid diester]	–
–	OB(O)O [BAB, boric acid]	2.9 ± 0.4
